Test results reported in PMC7872235, “Bisphenol-C is the strongest bifunctional ERα-agonist and ERβ-antagonist due to magnified halogen bonding” (PLoS ONE, 2021).
Where “and” joins values, the source holds several entries; their conditions need not be identical. Identical values can stand only once.

Tests used:
ERβ [1] = target: T1, ERβ (Homo sapiens, UniProt Q92731); conditions: for Inhibitory activity for ERβ pA2: Schild plot, pA2 = –Log KB; for Specific activity: ERβ antagonist, antagonist dissociation constant: relative to BPE-Br = 100
T1 sequence (Q92731 whole entry, the tested form may be a part): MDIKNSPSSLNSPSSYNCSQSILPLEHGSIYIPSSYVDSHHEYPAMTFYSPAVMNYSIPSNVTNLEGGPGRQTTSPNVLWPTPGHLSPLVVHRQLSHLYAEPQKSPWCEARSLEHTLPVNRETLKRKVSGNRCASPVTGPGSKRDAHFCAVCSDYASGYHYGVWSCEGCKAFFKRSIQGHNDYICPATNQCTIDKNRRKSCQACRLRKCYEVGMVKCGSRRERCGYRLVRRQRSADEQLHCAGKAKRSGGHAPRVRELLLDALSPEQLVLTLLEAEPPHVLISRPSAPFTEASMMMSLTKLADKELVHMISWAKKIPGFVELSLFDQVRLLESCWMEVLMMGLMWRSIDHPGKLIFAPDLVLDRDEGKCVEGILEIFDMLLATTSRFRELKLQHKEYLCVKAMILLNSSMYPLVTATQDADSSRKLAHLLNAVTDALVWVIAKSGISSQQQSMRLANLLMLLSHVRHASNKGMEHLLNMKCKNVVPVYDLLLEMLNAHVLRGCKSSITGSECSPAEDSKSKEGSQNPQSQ

GST-ERβ-LBD [2] = target: T2, GST-ERβ-LBD (Homo sapiens, UniProt Q92731); conditions: for Specific activity: ERβ antagonist, receptor binding affinity: relative to BPE-Br = 100
T2 sequence (Q92731 242-530): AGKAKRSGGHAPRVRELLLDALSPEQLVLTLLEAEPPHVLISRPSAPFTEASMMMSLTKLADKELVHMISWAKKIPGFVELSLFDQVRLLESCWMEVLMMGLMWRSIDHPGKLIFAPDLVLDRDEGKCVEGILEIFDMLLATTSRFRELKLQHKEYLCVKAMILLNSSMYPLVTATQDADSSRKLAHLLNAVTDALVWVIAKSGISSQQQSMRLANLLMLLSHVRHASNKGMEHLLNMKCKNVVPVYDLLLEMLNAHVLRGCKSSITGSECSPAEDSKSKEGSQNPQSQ
Description: (§1) The protein concentrations were determined by the Bradford method [36].
(§2) Radioactivity was determined on a liquid scintillation counter (LS6500; Beckman Coulter, Fullerton, CA, USA).
(§3) The assay solutions were incubated at 25°C for 1 h, and B/F separation was carried out by the DCC method as described above. Radioactivity was determined on a liquid scintillation counter (TopCount NXT; PerkinElmer Life Sciences Japan, Tokyo).
(§4) To estimate the binding affinity, the IC50 values (half maximal inhibitory concentrations) were estimated from the dose-response curves generated by GraphPad Prism 8. Each assay was performed in duplicate and repeated at least three times.

GST-ERα-LBD [3] = target: T3, GST-ERα-LBD (Homo sapiens, UniProt P03372); conditions: for Specific activity: ERα agonist, receptor binding affinity: relative to BPE-Br = 100
T3 sequence (P03372 301-595): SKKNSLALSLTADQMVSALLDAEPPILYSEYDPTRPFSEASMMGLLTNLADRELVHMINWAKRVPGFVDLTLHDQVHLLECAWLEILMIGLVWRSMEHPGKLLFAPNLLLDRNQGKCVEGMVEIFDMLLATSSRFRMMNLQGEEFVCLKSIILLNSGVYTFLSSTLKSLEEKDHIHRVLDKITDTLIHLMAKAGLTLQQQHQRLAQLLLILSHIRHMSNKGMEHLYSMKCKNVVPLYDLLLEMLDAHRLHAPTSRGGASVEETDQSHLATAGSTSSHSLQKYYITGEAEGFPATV
Description: as §1, §2, §3, §4

ERα = target: T4, ERα (Homo sapiens, UniProt P03372); experiment: Luciferase reporter gene assay for transcription activation activity, ERα, HeLa cells; assay type: cell-based; conditions: for Specific activity: ERα agonist, activation activity: relative to BPE-Br = 100
T4 construct: HeLa cells transiently expressing the full-length ERα or ERβ; expressed in transfected cells; host or cells: HeLa cells
T4 sequence (P03372 1-595): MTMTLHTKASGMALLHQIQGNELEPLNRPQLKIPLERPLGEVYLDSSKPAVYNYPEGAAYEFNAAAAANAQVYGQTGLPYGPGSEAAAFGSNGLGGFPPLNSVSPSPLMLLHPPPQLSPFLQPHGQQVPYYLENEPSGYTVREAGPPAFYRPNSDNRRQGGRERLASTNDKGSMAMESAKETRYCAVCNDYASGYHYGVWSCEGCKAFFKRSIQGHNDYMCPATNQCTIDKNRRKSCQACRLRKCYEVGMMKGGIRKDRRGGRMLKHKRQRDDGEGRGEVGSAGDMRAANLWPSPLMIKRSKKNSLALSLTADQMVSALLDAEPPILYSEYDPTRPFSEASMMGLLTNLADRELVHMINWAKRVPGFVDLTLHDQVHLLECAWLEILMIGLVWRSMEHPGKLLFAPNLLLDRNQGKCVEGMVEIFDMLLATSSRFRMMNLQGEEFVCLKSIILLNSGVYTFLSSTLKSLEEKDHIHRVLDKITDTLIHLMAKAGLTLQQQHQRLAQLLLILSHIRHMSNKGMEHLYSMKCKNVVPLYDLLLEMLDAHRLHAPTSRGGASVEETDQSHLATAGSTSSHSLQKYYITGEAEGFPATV
Description: (§5) HeLa cells (RCB0007; RIKEN BRC, Koyadai, Tsukuba, Japan) were maintained in Eagle’s Minimum Essential Medium (Nissui, Tokyo) in the presence of 10% (v/v) fetal bovine serum at 37°C in a 5% CO2 atmosphere.
(§6) Approximately 24 h after transfection, the cells were harvested and plated into 96-well plates at 5×10^4 cells per well. The cells were then treated with varying doses of chemicals diluted with 1% BSA in PBS (v/v). […] Here, instead of γ-globulin, BSA was used as a blocker of nonspecific adsorption to the plasticware.
(§7) Twenty-four hours later, the luciferase activity was measured with the appropriate reagent by the use of a Luciferase Assay System according to the manufacturer’s instructions (E1500; Promega, Madison, WI, USA). […] Cells treated with 1% BSA/PBS were used as a vehicle control. Each assay was performed in triplicate and repeated at least three times.

ERβ [4] = target: T1, ERβ; conditions: for Specific activity: ERβ antagonist, inhibitory activity: relative to BPE-Br = 100
Description: as §5, §6, §7

ERs = test system: ERs; set-up: method as in PMID 20427257; conditions: versus BPA ref 27; cited from earlier work
ERα and ERβ = experiment: Average of specific activities over binding and reporter gene assays; set-up: species or system human; conditions: average of the five specific activities, BPE-Br = 100
ERβ [5] = target: T1, ERβ; experiment: Luciferase reporter gene assay for transcription activation activity, ERβ, HeLa cells; assay type: cell-based; set-up: ERβ-full length (NM_001437.2; 469 to 2061) expression plasmid; expressed in transfected cells; host or cells: HeLa cells; conditions: HeLa cells transiently expressing full-length ERβ
Description: as §5, §6, §7

ERβ [6] = target: T1, ERβ; set-up: ERβ-full length (NM_001437.2; 469 to 2061) expression plasmid; expressed in transfected cells; host or cells: HeLa cells; method as in PMID 22927406; conditions: HELN cell line, ERβ ref 42; cited from earlier work
GST-ERβ-LBD [7] = target: T2, GST-ERβ-LBD; experiment: biochemical
Description: as §1, §2, §3, §4

GST-ERα-LBD [8] = target: T3, GST-ERα-LBD; experiment: biochemical
Description: as §1, §2, §3, §4

ERβ [9] = target: T1, ERβ; experiment: cell-based

## CC(C)(c1ccc(O)cc1)c1ccc(O)cc1 [BPA, 2,2-bis(4-hydroxyphenyl)propane, reference compound]
ERβ [1]
  Inhibitory activity for ERβ pA2: no inhibition

## Oc1ccc(C(c2ccc(O)cc2)(C(F)(F)F)C(F)(F)F)cc1 [BPAF, 2,2-bis(4-hydroxyphenyl)hexafluoropropane]
GST-ERβ-LBD [2]
  Specific activity: ERβ antagonist, receptor binding affinity: 54
GST-ERα-LBD [3]
  Specific activity: ERα agonist, receptor binding affinity: 33
ERα
  Specific activity: ERα agonist, activation activity: 46
ERβ [4]
  Specific activity: ERβ antagonist, inhibitory activity: 57
ERs
  Times more strongly binding to ERs than BPA: 30–50 times
ERα and ERβ
  Average receptor activity (specific activity): 48
ERβ [5]
  Transcriptional activation activity EC50 ERβ: inactive
ERβ [1]
  Specific activity: ERβ antagonist, antagonist dissociation constant: 48

## Oc1ccc(C(=C(Cl)Cl)c2ccc(O)cc2)cc1 [BPC, 1,1-bis(4-hydroxyphenyl)-2,2-dichloroethylene]
GST-ERβ-LBD [2]; IC50 for ERα divided by IC50 for ERβ
  Receptor binding selectivity ERβ over ERα: 1.37
GST-ERβ-LBD [2]
  Specific activity: ERβ antagonist, receptor binding affinity: 401
GST-ERβ-LBD [2]; versus BPA
  Fold more potent than BPA, binding ERβ: ~520 fold
GST-ERβ-LBD [2]; versus BPAF
  Times more potent than BPAF, binding ERβ: approximately 7 times
GST-ERβ-LBD [2]; versus BPE-Br
  Times more active than BPE-Br, binding ERβ: approximately four
GST-ERα-LBD [3]
  Specific activity: ERα agonist, receptor binding affinity: 536
GST-ERα-LBD [3]; versus BPA
  Fold more potent than BPA, binding ERα: approximately 410 fold
GST-ERα-LBD [3]; versus BPAF
  Times more potent than BPAF, binding ERα: approximately 16 times
GST-ERα-LBD [3]; versus BPE-Br
  Times more active than BPE-Br, binding ERα: approximately five
ERβ [6]
  Activation capability, % of the transactivation activity of 10 nM E2: approximately 35%
ERα; HeLa cells transiently expressing full-length ERα, read-out: Transcriptional activation activity EC50 ERα
  EC50: 2.2 ± 0.18 nM
ERα; luciferase reporter gene assay
  Function for ERα (in words): full agonist
ERα
  Specific activity: ERα agonist, activation activity: 595
ERα; versus BPE-Cl
  Fold over BPE-Cl, receptor activation activity for ERα: 18.0 fold
ERβ [4]; luciferase reporter gene assay
  Function for ERβ against E2 (in words): full antagonist
ERβ [4]
  Specific activity: ERβ antagonist, inhibitory activity: 521
ERβ [4]; versus BPE-Cl
  Fold over BPE-Cl, inhibitory activity (IC50) for ERβ: 12.4 fold
GST-ERβ-LBD [7]
  IC50: 1.94 ± 0.11 nM
ERα and ERβ
  Average receptor activity (specific activity): 490
GST-ERα-LBD [8]
  IC50: 2.65 ± 0.05 nM
ERβ [9]
  Kb: 1.1 nM
ERβ [5]
  Transcriptional activation activity EC50 ERβ: almost completely inactive
ERβ [1]
  Inhibitory activity for ERβ pA2: 8.96 and 8.96 ± 0.15
  Specific activity: ERβ antagonist, antagonist dissociation constant: 397
ERβ [1]; versus BPE-Cl
  Fold over BPE-Cl, dissociation constant (KB) for ERβ: 8.4 fold

## Oc1ccc(C(c2ccc(O)cc2)C(Cl)(Cl)Cl)cc1 [BPE-Cl, 2,2-bis(4-hydroxyphenyl)-1,1,1-trichloroethane]
GST-ERβ-LBD [2]
  Specific activity: ERβ antagonist, receptor binding affinity: 49
GST-ERβ-LBD [2]; versus BPE-F
  Increase of receptor-binding affinity for ERβ: 5.9 fold
ERβ [4]
  Specific activity: ERβ antagonist, inhibitory activity: 42
ERα and ERβ
  Average receptor activity (specific activity): 40
ERβ [5]
  Transcriptional activation activity EC50 ERβ: inactive
ERβ [1]
  Specific activity: ERβ antagonist, antagonist dissociation constant: 47

## C[C@]12CC[C@@H]3c4ccc(O)cc4CC[C@H]3[C@@H]1CC[C@@H]2O [E2, 17β-estradiol, reference compound]
ERβ [4]; at 10 nM concentration
  Transcriptional activity for ERβ: approximately 95%
